# Laboratory results reported in patent US20120270237A9, “METHODS FOR THE IDENTIFICATION OF KINASE INTERACTING MOLECULES AND FOR THE PURIFICATION OF KINASE PROTEINS” (Cellzone AG, priority 2009, published 2012).
# Tests used:
# Assay in all cases: Kinobeads competition binding, HeLa Placenta lysate mix
# Parameters in all cases: endogenous in cells
# Settings in all cases: 10 μM free compound
# PKD2 = target: T1, PKD2 (Homo sapiens, UniProt Q9BZL6)
# T1 sequence (Q9BZL6 1-878): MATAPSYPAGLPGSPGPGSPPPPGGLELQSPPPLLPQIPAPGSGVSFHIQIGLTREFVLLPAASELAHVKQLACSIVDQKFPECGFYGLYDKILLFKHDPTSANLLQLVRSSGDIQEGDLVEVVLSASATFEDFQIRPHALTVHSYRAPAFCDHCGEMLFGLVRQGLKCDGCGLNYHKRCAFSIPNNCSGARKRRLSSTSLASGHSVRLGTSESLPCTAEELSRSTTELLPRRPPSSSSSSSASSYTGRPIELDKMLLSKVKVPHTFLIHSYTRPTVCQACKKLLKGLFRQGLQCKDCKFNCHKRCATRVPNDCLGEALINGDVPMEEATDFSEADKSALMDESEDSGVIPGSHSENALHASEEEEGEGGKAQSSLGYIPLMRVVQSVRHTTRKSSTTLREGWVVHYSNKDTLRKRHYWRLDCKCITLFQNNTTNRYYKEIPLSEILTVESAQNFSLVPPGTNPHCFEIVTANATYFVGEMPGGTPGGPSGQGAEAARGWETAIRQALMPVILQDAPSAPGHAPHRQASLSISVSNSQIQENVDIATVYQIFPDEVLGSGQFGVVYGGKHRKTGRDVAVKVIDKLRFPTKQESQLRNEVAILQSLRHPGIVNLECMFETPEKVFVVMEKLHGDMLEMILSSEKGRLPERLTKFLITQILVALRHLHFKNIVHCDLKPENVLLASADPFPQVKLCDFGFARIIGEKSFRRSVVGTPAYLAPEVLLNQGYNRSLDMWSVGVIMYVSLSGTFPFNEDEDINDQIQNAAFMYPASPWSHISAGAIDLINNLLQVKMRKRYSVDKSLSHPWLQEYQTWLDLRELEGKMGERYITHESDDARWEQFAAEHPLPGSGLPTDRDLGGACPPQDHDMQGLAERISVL
# Summary of the method: (§1)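 Read-out is iTRAQ reporter ion quantification by nano-LC-MS/MS, comparing a lysate aliquot pretreated with 10 μM free compound to a DMSO solvent control. Kinases not bound by free compound were pulled down on beads carrying the immobilized compound, separated by SDS-PAGE and digested with trypsin.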
# PKD3 = target: T2, PKD3 (Homo sapiens, UniProt O94806)
# T2 sequence (O94806 1-890): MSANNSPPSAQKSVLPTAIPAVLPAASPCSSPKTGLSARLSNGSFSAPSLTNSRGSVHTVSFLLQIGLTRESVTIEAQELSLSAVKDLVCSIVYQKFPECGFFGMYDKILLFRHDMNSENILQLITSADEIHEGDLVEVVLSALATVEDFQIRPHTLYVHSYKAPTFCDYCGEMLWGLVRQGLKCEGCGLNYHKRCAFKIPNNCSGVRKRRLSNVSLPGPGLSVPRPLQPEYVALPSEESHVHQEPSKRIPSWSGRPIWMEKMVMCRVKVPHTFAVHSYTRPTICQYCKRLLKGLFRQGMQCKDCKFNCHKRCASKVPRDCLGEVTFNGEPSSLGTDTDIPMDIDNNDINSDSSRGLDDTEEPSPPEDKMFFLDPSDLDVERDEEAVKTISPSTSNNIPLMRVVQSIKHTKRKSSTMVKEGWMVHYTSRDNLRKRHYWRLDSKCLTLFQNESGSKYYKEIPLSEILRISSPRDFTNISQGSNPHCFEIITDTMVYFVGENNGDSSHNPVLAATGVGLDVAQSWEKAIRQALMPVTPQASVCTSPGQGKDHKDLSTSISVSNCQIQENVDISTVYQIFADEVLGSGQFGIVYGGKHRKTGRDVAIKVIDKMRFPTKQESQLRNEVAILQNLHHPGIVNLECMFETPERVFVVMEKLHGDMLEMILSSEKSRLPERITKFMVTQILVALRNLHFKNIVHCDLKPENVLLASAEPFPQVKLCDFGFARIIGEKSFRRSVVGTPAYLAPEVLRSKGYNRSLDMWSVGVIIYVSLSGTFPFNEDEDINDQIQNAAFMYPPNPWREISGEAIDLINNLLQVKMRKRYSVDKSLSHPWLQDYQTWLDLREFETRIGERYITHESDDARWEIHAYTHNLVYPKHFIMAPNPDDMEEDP
# Summary of the method: as §1
# TYK2 = TYK2 (Homo sapiens, UniProt P29597)
# TYK2, sequence (P29597 whole entry): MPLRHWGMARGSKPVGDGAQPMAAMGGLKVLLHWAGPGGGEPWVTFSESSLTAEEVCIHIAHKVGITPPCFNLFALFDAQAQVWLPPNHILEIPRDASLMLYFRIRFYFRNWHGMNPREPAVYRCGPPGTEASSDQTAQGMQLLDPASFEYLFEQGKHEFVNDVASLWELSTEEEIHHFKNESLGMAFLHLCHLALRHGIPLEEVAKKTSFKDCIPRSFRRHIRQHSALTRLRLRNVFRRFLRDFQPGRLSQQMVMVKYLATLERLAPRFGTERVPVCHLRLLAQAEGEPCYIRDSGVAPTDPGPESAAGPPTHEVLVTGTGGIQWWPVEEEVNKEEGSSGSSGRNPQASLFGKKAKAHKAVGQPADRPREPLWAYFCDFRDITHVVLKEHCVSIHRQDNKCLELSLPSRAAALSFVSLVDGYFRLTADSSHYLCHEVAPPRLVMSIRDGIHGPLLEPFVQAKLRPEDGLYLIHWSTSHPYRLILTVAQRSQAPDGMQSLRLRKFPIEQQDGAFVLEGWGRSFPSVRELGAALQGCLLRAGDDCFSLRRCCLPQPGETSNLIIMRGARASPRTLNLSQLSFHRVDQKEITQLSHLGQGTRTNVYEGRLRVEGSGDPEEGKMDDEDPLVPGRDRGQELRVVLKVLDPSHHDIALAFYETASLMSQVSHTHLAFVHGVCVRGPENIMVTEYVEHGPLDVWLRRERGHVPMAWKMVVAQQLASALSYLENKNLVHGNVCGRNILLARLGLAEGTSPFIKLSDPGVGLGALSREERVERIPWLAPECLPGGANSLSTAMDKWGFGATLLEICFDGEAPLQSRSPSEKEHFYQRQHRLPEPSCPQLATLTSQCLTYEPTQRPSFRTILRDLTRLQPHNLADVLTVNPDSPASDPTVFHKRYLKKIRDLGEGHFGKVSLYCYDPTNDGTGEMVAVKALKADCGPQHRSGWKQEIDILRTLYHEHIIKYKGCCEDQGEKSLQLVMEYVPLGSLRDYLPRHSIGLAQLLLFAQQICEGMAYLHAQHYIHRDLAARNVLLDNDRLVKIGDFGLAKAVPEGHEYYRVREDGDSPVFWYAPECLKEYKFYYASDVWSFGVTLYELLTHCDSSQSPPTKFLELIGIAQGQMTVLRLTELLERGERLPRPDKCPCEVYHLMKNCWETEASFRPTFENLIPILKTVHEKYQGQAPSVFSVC
# Summary of the method: as §1
compound,measurement,setting,value
"CS(=O)(=O)Nc1ccccc1Nc1nc(Nc2cccc(OCCN)c2)ncc1Cl [CZC31326, N-(2-(2-(3-(2-aminoethoxy)phenylamino)-5-chloropyrimidin-4-ylamino)phenyl)methanesulfonamide]",inhibition at 10 µM,PKD2,95.4%
same,inhibition at 10 µM,PKD3,95.7%
same,Competition %,TYK2,93.8%
